In experiment [1] the test system is CA1 hippocampal neurons. Description: 2-photon FRET cAMP imaging in acute brain slices. The class given is cell-based, mice. Conditions: bath application 100 nM, CaMKIIα-Cre:CAMPER+/− slices.
For experiment [2], the target named is D2R (Homo sapiens, UniProt P14416). It counts as cell-based. The conditions noted are these: D2R vs D3R.
Experiment [3] relates to D2R. Conditions: cited from earlier work.

Sequence of D2R (Homo sapiens, UniProt P14416) (P14416 whole entry): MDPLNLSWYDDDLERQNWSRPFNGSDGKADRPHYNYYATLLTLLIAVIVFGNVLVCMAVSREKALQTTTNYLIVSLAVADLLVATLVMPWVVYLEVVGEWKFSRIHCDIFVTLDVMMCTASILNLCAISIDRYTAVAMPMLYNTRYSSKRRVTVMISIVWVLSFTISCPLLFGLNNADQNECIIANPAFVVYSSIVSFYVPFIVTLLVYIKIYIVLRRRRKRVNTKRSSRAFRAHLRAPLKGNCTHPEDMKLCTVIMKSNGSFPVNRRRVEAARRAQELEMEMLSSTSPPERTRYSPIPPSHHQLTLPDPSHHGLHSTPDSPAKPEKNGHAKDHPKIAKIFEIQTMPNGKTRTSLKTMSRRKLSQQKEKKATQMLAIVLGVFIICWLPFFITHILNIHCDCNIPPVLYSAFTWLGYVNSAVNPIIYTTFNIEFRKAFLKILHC

For the compound `COc1ccc(OCCN2CCN(C(=O)c3cc4ccccc4[nH]3)CC2)cc1` [ML417], the “agonist-induced cAMP response” value in experiment [1] is recorded as “increase in cAMP production”.

`CN[C@@H]1Cc2cccc3[nH]c(=O)n(c23)C1` [sumanirole]: the “activation of GoA via D2R compared to D3R” value in experiment [2] was “five”. In experiment [1], the “agonist-induced cAMP response” value is recorded as “robust inhibition of cAMP”. The “affinity for D2R over D3R” value in experiment [3] is reported as 200 fold.

The values above are taken from PMC12363792 (bioRxiv, 2025).
